In PubChem BioAssay AID1919017 (Molecular Pharmacology Branch, DTP, NCI, 2023):

Test system: SW1271 complex spheroids with HUVEC/MSC, growth, % test/control
Test: Anticancer human tumor SW1271 cell line growth inhibition [AhR];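 note: spheroids exposed to agents for 7 days before readout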
Conditions: for IC50: curve of first compound; for viability, T/C: stronger effect = lower value; active = viability on the fitted dose curve at most 10% of control; inactive = the rest
Outline: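 Agents were dosed in half-log steps down from roughly clinical Cmax, or from 10 microM where Cmax was unknown, alone and with AhR antagonists. Read-out: percent test/control growth of tumor spheroids containing HUVEC and MSC stromal cells.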

COc1ccc([C@@H](O)c2cc(-c3ncnc4cc(N5CCOCC5)ccc34)c(F)cc2Cl)nn1 + Cc1ccccc1N=Nc1ccc(NC(=O)c2ccnn2C)c(C)c1
4750 nM: IC50 (second compound 3.16 µM)
inactive: viability, T/C (second compound 0.1 µM, first compound 0.0316 µM) 97.2% | viability, T/C (second compound 0.1 µM, first compound 0.1 µM) 98.1% | viability, T/C (second compound 0.1 µM, first compound 0.316 µM) 87.2% | viability, T/C (second compound 0.1 µM, first compound 1 µM) 58.6% | viability, T/C (second compound 0.1 µM, first compound 3.16 µM) 50% | viability, T/C (second compound 0.1 µM, first compound 10 µM) 33.9% | viability, T/C (second compound 0.316 µM, first compound 0.0316 µM) 82.9% | viability, T/C (second compound 0.316 µM, first compound 0.1 µM) 94.2% | viability, T/C (second compound 0.316 µM, first compound 0.316 µM) 77.6% | viability, T/C (second compound 0.316 µM, first compound 1 µM) 65% | viability, T/C (second compound 0.316 µM, first compound 3.16 µM) 47.6% | viability, T/C (second compound 0.316 µM, first compound 10 µM) 33.5% | viability, T/C (second compound 1 µM, first compound 0.0316 µM) 94.6% | viability, T/C (second compound 1 µM, first compound 0.1 µM) 89% | viability, T/C (second compound 1 µM, first compound 0.316 µM) 86.2% | viability, T/C (second compound 1 µM, first compound 1 µM) 68.1% | viability, T/C (second compound 1 µM, first compound 3.16 µM) 57.9% | viability, T/C (second compound 1 µM, first compound 10 µM) 40.4% | viability, T/C (second compound 3.16 µM, first compound 0.0316 µM) 84.5% | viability, T/C (second compound 3.16 µM, first compound 0.1 µM) 80.5% | viability, T/C (second compound 3.16 µM, first compound 0.316 µM) 70.6% | viability, T/C (second compound 3.16 µM, first compound 1 µM) 68.9% | viability, T/C (second compound 3.16 µM, first compound 3.16 µM) 59.2% | viability, T/C (second compound 3.16 µM, first compound 10 µM) 36.8% | viability, T/C (second compound 10 µM, first compound 0.0316 µM) 89.5% | viability, T/C (second compound 10 µM, first compound 0.1 µM) 73.5% | viability, T/C (second compound 10 µM, first compound 0.316 µM) 77.7% | viability, T/C (second compound 10 µM, first compound 1 µM) 60.9% | viability, T/C (second compound 10 µM, first compound 3.16 µM) 41.2% | viability, T/C (second compound 10 µM, first compound 10 µM) 37.4%
2550 nM: IC50 (second compound 0.316 µM)
5040 nM: IC50 (second compound 1 µM)
2220 nM: IC50 (second compound 0.1 µM)
1980 nM: IC50 (second compound 10 µM)

O=C(C=Cn1cnc(-c2cc(C(F)(F)F)cc(C(F)(F)F)c2)n1)NNc1cnccn1 + Cc1ccccc1N=Nc1ccc(NC(=O)c2ccnn2C)c(C)c1
1390 nM: IC50 (second compound 0.316 µM)
> 3000 nM: IC50 (second compound 3.16 µM) | IC50 (second compound 10 µM)
2470 nM: IC50 (second compound 1 µM)
2020 nM: IC50 (second compound 0.1 µM)
inactive: viability, T/C (second compound 0.1 µM, first compound 0.00949 µM) 87% | viability, T/C (second compound 0.1 µM, first compound 0.03 µM) 111% | viability, T/C (second compound 0.1 µM, first compound 0.0949 µM) 86.1% | viability, T/C (second compound 0.1 µM, first compound 0.3 µM) 64.5% | viability, T/C (second compound 0.1 µM, first compound 0.949 µM) 54.1% | viability, T/C (second compound 0.1 µM, first compound 3 µM) 46.7% | viability, T/C (second compound 0.316 µM, first compound 0.00949 µM) 78.9% | viability, T/C (second compound 0.316 µM, first compound 0.03 µM) 86.2% | viability, T/C (second compound 0.316 µM, first compound 0.0949 µM) 84% | viability, T/C (second compound 0.316 µM, first compound 0.3 µM) 64.8% | viability, T/C (second compound 0.316 µM, first compound 0.949 µM) 56% | viability, T/C (second compound 0.316 µM, first compound 3 µM) 42.8% | viability, T/C (second compound 1 µM, first compound 0.00949 µM) 111% | viability, T/C (second compound 1 µM, first compound 0.03 µM) 85.7% | viability, T/C (second compound 1 µM, first compound 0.0949 µM) 79% | viability, T/C (second compound 1 µM, first compound 0.3 µM) 79.2% | viability, T/C (second compound 1 µM, first compound 0.949 µM) 59.4% | viability, T/C (second compound 1 µM, first compound 3 µM) 45.8% | viability, T/C (second compound 3.16 µM, first compound 0.00949 µM) 109% | viability, T/C (second compound 3.16 µM, first compound 0.03 µM) 95.6% | viability, T/C (second compound 3.16 µM, first compound 0.0949 µM) 99.7% | viability, T/C (second compound 3.16 µM, first compound 0.3 µM) 61.4% | viability, T/C (second compound 3.16 µM, first compound 0.949 µM) 64.9% | viability, T/C (second compound 3.16 µM, first compound 3 µM) 49% | viability, T/C (second compound 10 µM, first compound 0.00949 µM) 94.8% | viability, T/C (second compound 10 µM, first compound 0.03 µM) 93% | viability, T/C (second compound 10 µM, first compound 0.0949 µM) 107% | viability, T/C (second compound 10 µM, first compound 0.3 µM) 71.2% | viability, T/C (second compound 10 µM, first compound 0.949 µM) 61.4% | viability, T/C (second compound 10 µM, first compound 3 µM) 45.7%
